In EPA's ToxValDB 9.5 (doi:10.2903/j.efsa.2009.327r):
Converted amounts (≈) assume the structure as drawn.

Columns and labels:
[1] = test system: Rattus norvegicus
[2] = test system: Oncorhynchus mykiss; conditions: acute; duration: 96 hours; mortality
[3] = test system: Tagia sp.; conditions: acute; duration: 14 days; mortality
[4] = test system: Colinus virginianus
[5] = test system: Apis mellifera; conditions: acute, mortality
[6] = test system: Daphnia magna; conditions: chronic/long-term; duration: 21 days; reproduction
[7] = test system: Bibionidae; conditions: chronic/long-term, duration: 28 days
[8] = test system: Aphidius rhopalosiphi; conditions: acute; duration: 7 days; mortality
[9] = test system: Pimephales promelas; conditions: chronic/long-term; duration: 35 days; growth

## CCCN(CCC)c1c([N+](=O)[O-])cc(C(F)(F)F)cc1[N+](=O)[O-] [Trifluralin]
[1]; acute, oral, mortality
  LD50: > 5000 mg/kg
[1]; chronic, duration: 2 years, Fischer 344, histopathology: neoplastic
  LOAEL: 30 mg/kg-day
[1]; reproduction developmental, reproduction
  NOAEL: 148 mg/kg-day
[1]; subchronic, duration: 90 days, oral
  NOAEL: 2.6 mg/kg-day
[2]
  LC50: 0.088 µg/mL (≈ 0.262 µM)
[3]
  LC50: > 1000 mg/kg
[4]; acute, oral, diet, mortality
  LC50: 574 mg/kg-day
[4]; acute, oral, mortality
  LD50: > 2250 mg/kg
[4]; reproduction developmental
  NOEC: 103 mg/kg-day
[5]; duration: 48 hours, dermal
  LD50: > 100 µg/piece
[5]; oral, unspecified
  LD50: > 80 µg/piece
[6]
  NOEC: 0.0507 mg/L
[7]; development
  NOEC: 0.25 mg/L
[7]; mortality
  NOEC: 810 mg/kg
[8]
  LEL: 1200 g/ha
[9]
  NOEC: 0.0003 mg/L
